# Experimental data published in PubChem BioAssay (NCI).
#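 Protocol summary: plate cells (96-well), add compound at 5 concentrations, incubate 48 h, interpolate endpoints linearly. GI50 = concentration required for 50% inhibition of growth. The concentration for full growth arrest is given as TGI.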
# Columns and labels:
# Experiment in all cases: NCI tumour cell line growth inhibition, 48 h
# 786-0 renal = tested on: 786-0 renal
# A549 NSCLC = tested on: A549 NSCLC
# ACHN renal = tested on: ACHN renal
# BT-549 breast = tested on: BT-549 breast
# CAKI-1 renal = tested on: CAKI-1 renal
# CCRF-CEM leukemia = tested on: CCRF-CEM leukemia
# COLO 205 colon = tested on: COLO 205 colon
# DU-145 prostate = tested on: DU-145 prostate
# EKVX NSCLC = tested on: EKVX NSCLC
# HCC-2998 colon = tested on: HCC-2998 colon
# HCT-116 colon = tested on: HCT-116 colon
# HCT-15 colon = tested on: HCT-15 colon
# HOP-62 NSCLC = tested on: HOP-62 NSCLC
# HT29 colon = tested on: HT29 colon
# IGROV1 ovarian = tested on: IGROV1 ovarian
# K-562 leukemia = tested on: K-562 leukemia
# M14 melanoma = tested on: M14 melanoma
# MALME-3M melanoma = tested on: MALME-3M melanoma
# MDA-MB-231 breast = tested on: MDA-MB-231 breast
# MDA-MB-435 = tested on: MDA-MB-435
# MOLT-4 leukemia = tested on: MOLT-4 leukemia
# NCI-H460 lung = tested on: NCI-H460 lung
# NCI-H522 lung = tested on: NCI-H522 lung
# NCI/ADR-RES ovarian = tested on: NCI/ADR-RES ovarian
# OVCAR-3 ovarian = tested on: OVCAR-3 ovarian
# OVCAR-5 ovarian = tested on: OVCAR-5 ovarian
# PC-3 prostate = tested on: PC-3 prostate
# RPMI-8226 leukemia = tested on: RPMI-8226 leukemia
# RXF 393 renal = tested on: RXF 393 renal
# SF-268 CNS = tested on: SF-268 CNS
# SF-295 CNS = tested on: SF-295 CNS
# SF-539 CNS = tested on: SF-539 CNS
# SK-MEL-2 melanoma = tested on: SK-MEL-2 melanoma
# SK-OV-3 ovarian = tested on: SK-OV-3 ovarian
# SN12C renal = tested on: SN12C renal
# SNB-19 CNS = tested on: SNB-19 CNS
# SNB-75 CNS = tested on: SNB-75 CNS
# SR leukemia = tested on: SR leukemia
# SW-620 colon = tested on: SW-620 colon
# T-47D breast = tested on: T-47D breast
# TK-10 renal = tested on: TK-10 renal
# U251 CNS = tested on: U251 CNS
# UACC-257 melanoma = tested on: UACC-257 melanoma
# UACC-62 melanoma = tested on: UACC-62 melanoma
# UO-31 renal = tested on: UO-31 renal
structure (smiles),measurement,setting,value
Cc1nn2c(/C=N/N=C(N)N)c(-c3ccc(Cl)c([N+](=O)[O-])c3)nc2s1,GI50,786-0 renal,249 nM
same,TGI,786-0 renal,442 nM
same,GI50,A549 NSCLC,4960 nM
same,TGI,A549 NSCLC,17500 nM
same,GI50,ACHN renal,966 nM
same,TGI,ACHN renal,2580 nM
same,GI50,BT-549 breast,21600 nM
same,TGI,BT-549 breast,48300 nM
same,GI50,CAKI-1 renal,1470 nM
same,TGI,CAKI-1 renal,2850 nM
same,GI50,CCRF-CEM leukemia,368 nM
same,TGI,CCRF-CEM leukemia,751 nM
same,GI50,COLO 205 colon,457 nM
same,TGI,COLO 205 colon,61700 nM
same,GI50,DU-145 prostate,2320 nM
same,TGI,DU-145 prostate,4980 nM
same,GI50,EKVX NSCLC,25300 nM
same,TGI,EKVX NSCLC,69600 nM
same,GI50,HCC-2998 colon,1420 nM
same,TGI,HCC-2998 colon,2910 nM
same,GI50,HCT-116 colon,192 nM
same,TGI,HCT-116 colon,374 nM
same,GI50,HCT-15 colon,1430 nM
same,TGI,HCT-15 colon,3720 nM
same,GI50,HOP-62 NSCLC,262 nM
same,TGI,HOP-62 NSCLC,529 nM
same,GI50,HT29 colon,236 nM
same,GI50,IGROV1 ovarian,6200 nM
same,TGI,IGROV1 ovarian,22100 nM
same,GI50,K-562 leukemia,2980 nM
same,TGI,K-562 leukemia,9630 nM
same,GI50,M14 melanoma,1720 nM
same,TGI,M14 melanoma,3300 nM
same,GI50,MALME-3M melanoma,2440 nM
same,TGI,MALME-3M melanoma,4140 nM
same,GI50,MDA-MB-231 breast,2030 nM
same,TGI,MDA-MB-231 breast,3660 nM
same,GI50,MDA-MB-435,204 nM
same,TGI,MDA-MB-435,363 nM
same,GI50,MOLT-4 leukemia,2880 nM
same,TGI,MOLT-4 leukemia,5610 nM
same,GI50,NCI-H460 lung,1180 nM
same,GI50,NCI-H522 lung,7040 nM
same,TGI,NCI-H522 lung,46700 nM
same,GI50,NCI/ADR-RES ovarian,3610 nM
same,TGI,NCI/ADR-RES ovarian,15000 nM
same,GI50,OVCAR-3 ovarian,488 nM
same,TGI,OVCAR-3 ovarian,1520 nM
same,GI50,OVCAR-5 ovarian,1420 nM
same,TGI,OVCAR-5 ovarian,3150 nM
same,GI50,PC-3 prostate,1140 nM
same,TGI,PC-3 prostate,2830 nM
same,GI50,RPMI-8226 leukemia,791 nM
same,TGI,RPMI-8226 leukemia,1760 nM
same,GI50,RXF 393 renal,3400 nM
same,GI50,SF-268 CNS,1220 nM
same,GI50,SF-295 CNS,615 nM
same,TGI,SF-295 CNS,1940 nM
same,GI50,SF-539 CNS,2070 nM
same,TGI,SF-539 CNS,3630 nM
same,GI50,SK-MEL-2 melanoma,2530 nM
same,TGI,SK-MEL-2 melanoma,6460 nM
same,GI50,SK-OV-3 ovarian,2850 nM
same,TGI,SK-OV-3 ovarian,6750 nM
same,GI50,SN12C renal,763 nM
same,TGI,SN12C renal,1580 nM
same,GI50,SNB-19 CNS,543 nM
same,TGI,SNB-19 CNS,> 100000 nM
same,GI50,SNB-75 CNS,1360 nM
same,TGI,SNB-75 CNS,2940 nM
same,GI50,SR leukemia,2530 nM
same,TGI,SR leukemia,4900 nM
same,GI50,SW-620 colon,444 nM
same,TGI,SW-620 colon,1720 nM
same,GI50,T-47D breast,481 nM
same,GI50,TK-10 renal,2060 nM
same,TGI,TK-10 renal,3560 nM
same,GI50,U251 CNS,285 nM
same,TGI,U251 CNS,597 nM
same,GI50,UACC-257 melanoma,6140 nM
same,TGI,UACC-257 melanoma,11700 nM
same,GI50,UACC-62 melanoma,2060 nM
same,TGI,UACC-62 melanoma,3580 nM
same,GI50,UO-31 renal,20900 nM
same,TGI,UO-31 renal,41100 nM
